# Values of other authors as cited in US20160176819A1, “ASYMMETRICALLY CHARGED NIR FLUOROPHORES” (Washington University, priority 2014, published 2016).
# Values joined by “and” are separate entries in the source; they are usually repeats but may differ in a detail not shown here. Identical values can stand only once.
# Experiments:
# [1] = reference value; cited from earlier work
# [2] = ICG in DMSO, literature values; cited from earlier work
structure (smiles),measurement,setting,value
"CC1(C)C(/C=C/C=C/C=C/C=C2\N(CCCCS(=O)(=O)O)c3ccc4ccccc4c3C2(C)C)=[N+](CCCCS(=O)(=O)[O-])c2ccc3ccccc3c21 [ICG, indocyanine green]",QY of the reference,[1],23%
same,fluorescence quantum yield of the reference,[2],0.12 and 0.22
